From BindingDB's records for doi:10.1021/acsmedchemlett.1c00437 (University of Pennsylvania, 2021)

Key:
[1] = Inhibition of gp120 in HIV-1 pseudotyped with A-MLV envelop glycoprotein infected in dog Cf2Th-CD4/CCR5 cells assessed as inhibition of viral entry incubated for 30 mins prior to infection and further incubated for 48 to 72 hrs in presence of firefly D-luciferin free acid and ATP by single-round infection luciferase assay
[2] = Inhibition of gp120 in HIV-1 AD8 infected in dog Cf2Th-CD4/CCR5 cells assessed as inhibition of viral entry incubated for 30 mins prior to infection and further incubated for 48 to 72 hrs in presence of firefly D-luciferin free acid and ATP by single-round infection luciferase assay
[3] = Inhibition of gp120 in HIV-1 A4 infected in dog Cf2Th-CD4/CCR5 cells assessed as inhibition of viral entry incubated for 30 mins prior to infection and further incubated for 48 to 72 hrs in presence of firefly D-luciferin free acid and ATP by single-round infection luciferase assay
[4] = Inhibition of gp120 in HIV-1 191084 infected in dog Cf2Th-CD4/CCR5 cells assessed as inhibition of viral entry incubated for 30 mins prior to infection and further incubated for 48 to 72 hrs in presence of firefly D-luciferin free acid and ATP by single-round infection luciferase assay

| SMILES | IC50 [1] [µM] | IC50 [2] [µM] | IC50 [3] [µM] | IC50 [4] [µM] |
| --- | --- | --- | --- | --- |
| C=CCC[C@@H]1c2cc(CNC)ccc2[C@H](NC(=O)C(=O)Nc2ccc(Cl)c(F)c2)[C@H]1CNC(=N)N | > 300 | 7.4 |  |  |
| CNCc1ccc2c(c1)[C@@H](CCCO)[C@H](CNC(=N)N)[C@H]2NC(=O)C(=O)Nc1ccc(Cl)c(F)c1 | > 300 | 7.7 |  |  |
| CNCc1ccc2c(c1)[C@@H](CCC(O)CO)[C@H](CNC(=N)N)[C@H]2NC(=O)C(=O)Nc1ccc(Cl)c(F)c1 (some centres undefined) | > 300 | 3.32 | 98.9 | 20.6 |
| CNCc1ccc2c(c1)[C@@H](CCC(=O)CO)[C@H](CNC(=N)N)[C@H]2NC(=O)C(=O)Nc1ccc(Cl)c(F)c1 | > 100 | 3.35 |  |  |
| [H]/N=C(/N)NC[C@H]1[C@H](CC[C@H](O)CO)c2cc(CNC)ccc2[C@@H]1NC(=O)C(=O)Nc1ccc(Cl)c(F)c1 | > 300 | 0.91 |  |  |
| [H]/N=C(/N)NC[C@H]1[C@H](CC[C@@H](O)CO)c2cc(CNC)ccc2[C@@H]1NC(=O)C(=O)Nc1ccc(Cl)c(F)c1 | > 300 | 1.6 |  |  |
| CNCc1ccc2c(c1)[C@H](NC(=O)C(=O)Nc1ccc(Cl)c(F)c1)[C@@H](CNC(=N)N)[C@@H]2CCCO | > 300 | 2.05 |  |  |
| CNCc1ccc2c(c1)[C@H](NC(=O)C(=O)Nc1ccc(Cl)c(F)c1)[C@@H](CNC(=N)N)[C@@H]2CCC(O)CO (some centres undefined) | > 300 | 0.96 |  |  |
| CNCc1ccc2c(c1)[C@H](NC(=O)C(=O)Nc1ccc(Cl)c(F)c1)[C@@H](CNC(=N)N)[C@@H]2CC[C@H](O)CO | > 300 | 2.22 |  |  |
| CCCC[C@@H]1c2cc(CNC)ccc2[C@H](NC(=O)C(=O)Nc2ccc(Cl)c(F)c2)[C@H]1CNC(=N)N | > 100 |  |  |  |
| C=CCC[C@@H]1c2ccc(CNC)cc2[C@H](NC(=O)C(=O)Nc2ccc(Cl)c(F)c2)[C@H]1CNC(=N)N | > 300 |  |  |  |
| [H]/N=C(/N)NC[C@H]1Cc2cc(CNC)ccc2[C@@H]1NC(=O)C(=O)Nc1ccc(Cl)c(F)c1 |  |  | 200 | 95.9 |
